Results from doi:10.1101/2022.03.07.483284v1 (biorxiv, 2022).

Columns and labels:
[1] = biological target: T1, WTapPOL (intact exonuclease domain) (Plasmodium falciparum, UniProt Q8ILY1); test: […]'-5' exonuclease assay, 2-aminopurine release from blunt-ended dsDNA; format: biochemical; conditions: read-out: % inhibition at 100 μM
T1 sequence (Q8ILY1 1389-2016): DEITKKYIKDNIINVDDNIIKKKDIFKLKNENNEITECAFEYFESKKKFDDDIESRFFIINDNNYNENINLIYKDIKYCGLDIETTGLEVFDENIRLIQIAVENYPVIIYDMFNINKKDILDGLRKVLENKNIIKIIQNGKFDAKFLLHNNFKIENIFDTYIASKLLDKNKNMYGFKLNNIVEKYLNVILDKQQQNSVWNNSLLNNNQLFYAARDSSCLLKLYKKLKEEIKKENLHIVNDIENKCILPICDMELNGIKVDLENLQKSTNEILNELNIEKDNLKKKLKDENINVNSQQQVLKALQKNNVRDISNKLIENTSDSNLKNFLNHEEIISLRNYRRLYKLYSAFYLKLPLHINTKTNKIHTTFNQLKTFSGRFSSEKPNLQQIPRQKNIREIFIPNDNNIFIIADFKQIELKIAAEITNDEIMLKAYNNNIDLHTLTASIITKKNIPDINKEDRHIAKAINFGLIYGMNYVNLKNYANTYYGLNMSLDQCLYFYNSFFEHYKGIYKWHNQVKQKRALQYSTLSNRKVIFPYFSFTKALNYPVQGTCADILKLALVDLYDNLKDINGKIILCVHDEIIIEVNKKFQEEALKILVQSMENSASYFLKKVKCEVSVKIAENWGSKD

[2] = biological target: T1, WTapPOL (intact exonuclease domain); test: as above; format: biochemical

| Compound | inhibition at 100 µM [1] [%] | IC50 [2] [µM] |
| --- | --- | --- |
| CC(C)(C)c1ccc(C(=O)Nc2c3c(nn2-c2cccc(Cl)c2)CSC3)cc1 [5a, MMV666123] | < 50 |  |
| CC(C)(C)c1ccc(NC(=O)Nc2c3c(nn2-c2cccc(Cl)c2)COC3)cc1 [13a] | < 50 |  |
| CC(C)(C)c1ccc(NC(=O)Nc2c3c(nn2-c2cccc(C(F)(F)F)c2)CSC3)cc1 [7e] | < 50 |  |
| CC(C)(C)c1ccc(NC(=O)Nc2c3c(nn2-c2cccc(Cl)c2)CSC3)cc1 [7a] | < 50 |  |

Further lines, results first:

| inhibition at 100 µM [1] [%] | IC50 [2] [µM] | Compound |
| --- | --- | --- |
|  | 40 ± 5.7 | CC(C)(C)c1ccc(S(=O)(=O)Nc2c3c(nn2-c2cccc(Cl)c2)CSC3)cc1 [6a] |
| < 50 |  | CC(C)(C)c1ccc(NC(=O)Nc2c3c(nn2-c2ccc(Cl)cc2)CSC3)cc1 [7b] |
|  | 16 ± 0.9 | CC(C)(C)c1ccc(S(=O)(=O)Nc2c3c(nn2-c2ccc(C(F)(F)F)cc2)CSC3)cc1 [6f] |
|  | 21 ± 2.5 | CC(C)(C)c1ccc(S(=O)(=O)Nc2c3c(nn2-c2ccc(Cl)cc2)CSC3)cc1 [6b] |
|  | 41 ± 6.7 | CC(C)(C)c1ccc(S(=O)(=O)Nc2c3c(nn2-c2cccc(C(F)(F)F)c2)CSC3)cc1 [6e] |
